# Experimental data published in US6623933B1 (priority 1999, dated 2003).
# Experiments:
# [1] = tested on: primary cultures of rat hippocampal neurons; experiment: NMDA-induced neuronal death, trypan blue exclusion; type: cell-based
# Description: (§1) Principally neuronal cultures were prepared from hippocampal tissue of fetal Sprague-Dawley rats on day 18 of embryonic development, as previously described (Brewer et al., Brain Research 494: 65-74 (1989)). Briefly, hippocampal cells were dissociated by trituration in Ca^2+/Mg^2+-free Hank's basic salt solution (Gibco) supplemented with 4.2 mM bicarbonate, 1 mM sodium pyruvate, 20 mM HEPES, 3 mg/ml bovine serum albumin (BSA). Dissociated cells were then pelleted by centrifugation (500×g, 4 min). […] Cells were then plated onto poly-L-lysine-coated 24-well culture dishes (Nunclon) at a density of 15,000 cell/cm^2 and maintained in a humidified atmosphere containing 5% CO2/95% air at 37° C. After 48 h, nonneuronal cell division was inhibited by a 48 h exposure to 1 μM cytosine arabinoside. Cultures were subsequently maintained in serum-free DMEM plus defined components and were used for experiments 16 to 24 days after plating.
# (§2) Steroids were dissolved in DMSO (0.5% final concentration), and all treatment media contained 0.5% DMSO. […] Following exposure, cultures were washed 3 times with medium from sister cultures (conditioned medium). After the final wash, steroid or vehicle was reintroduced. Drugs were added to cultures in 25 μl of conditioned medium to yield a final volume of 0.25 ml per well. Except where otherwise noted, final steroid concentration was 100 μM.
# The ability of neurons to exclude trypan blue was used to quantitate cell viability (Dawson et al., Proc Natl Acad Sci USA 88: 6368-6371 (1991)). […] Cultures were then fixed with 4% paraformaldehyde in PBS for 30 min, at whichtime the fixative was replaced with PBS. The number of stained and unstained neurons were counted in 4 high-power fields per culture well, using an inverted phase contrast microscope under both bright field and phase contrast settings. Experiments were performed in triplicate, and all assessments were made with the experimenter blind to the treatment of each culture well. Percent cell death is expressed as follows: (number of trypan blue stained neurons)/(total number of neurons)×100%.
# (§3) All data are expressed as mean±standard error of the mean. Statistical significance was evaluated using 95% confidence limits unless otherwise noted.
# [2] = tested on: middle cerebral artery occlusion in rats; conditions: Weaver et al. 1997; cited from earlier work
# [3] = biological target: T1, NR1100+NR2A NMDA receptor (Rattus norvegicus, UniProt P35439+Q00959); experiment: NMDA-induced current (INMDA), Xenopus oocytes, Example 2; type: cell-based; conditions: 100 μM NMDA, 100 μM steroid
# T1 construct: expressed in transfected cells; host or cells: Xenopus oocytes co-injected with NR1100 and NR2A cRNA
# T1 sequence (Q00959 23-1464, other chains not shown): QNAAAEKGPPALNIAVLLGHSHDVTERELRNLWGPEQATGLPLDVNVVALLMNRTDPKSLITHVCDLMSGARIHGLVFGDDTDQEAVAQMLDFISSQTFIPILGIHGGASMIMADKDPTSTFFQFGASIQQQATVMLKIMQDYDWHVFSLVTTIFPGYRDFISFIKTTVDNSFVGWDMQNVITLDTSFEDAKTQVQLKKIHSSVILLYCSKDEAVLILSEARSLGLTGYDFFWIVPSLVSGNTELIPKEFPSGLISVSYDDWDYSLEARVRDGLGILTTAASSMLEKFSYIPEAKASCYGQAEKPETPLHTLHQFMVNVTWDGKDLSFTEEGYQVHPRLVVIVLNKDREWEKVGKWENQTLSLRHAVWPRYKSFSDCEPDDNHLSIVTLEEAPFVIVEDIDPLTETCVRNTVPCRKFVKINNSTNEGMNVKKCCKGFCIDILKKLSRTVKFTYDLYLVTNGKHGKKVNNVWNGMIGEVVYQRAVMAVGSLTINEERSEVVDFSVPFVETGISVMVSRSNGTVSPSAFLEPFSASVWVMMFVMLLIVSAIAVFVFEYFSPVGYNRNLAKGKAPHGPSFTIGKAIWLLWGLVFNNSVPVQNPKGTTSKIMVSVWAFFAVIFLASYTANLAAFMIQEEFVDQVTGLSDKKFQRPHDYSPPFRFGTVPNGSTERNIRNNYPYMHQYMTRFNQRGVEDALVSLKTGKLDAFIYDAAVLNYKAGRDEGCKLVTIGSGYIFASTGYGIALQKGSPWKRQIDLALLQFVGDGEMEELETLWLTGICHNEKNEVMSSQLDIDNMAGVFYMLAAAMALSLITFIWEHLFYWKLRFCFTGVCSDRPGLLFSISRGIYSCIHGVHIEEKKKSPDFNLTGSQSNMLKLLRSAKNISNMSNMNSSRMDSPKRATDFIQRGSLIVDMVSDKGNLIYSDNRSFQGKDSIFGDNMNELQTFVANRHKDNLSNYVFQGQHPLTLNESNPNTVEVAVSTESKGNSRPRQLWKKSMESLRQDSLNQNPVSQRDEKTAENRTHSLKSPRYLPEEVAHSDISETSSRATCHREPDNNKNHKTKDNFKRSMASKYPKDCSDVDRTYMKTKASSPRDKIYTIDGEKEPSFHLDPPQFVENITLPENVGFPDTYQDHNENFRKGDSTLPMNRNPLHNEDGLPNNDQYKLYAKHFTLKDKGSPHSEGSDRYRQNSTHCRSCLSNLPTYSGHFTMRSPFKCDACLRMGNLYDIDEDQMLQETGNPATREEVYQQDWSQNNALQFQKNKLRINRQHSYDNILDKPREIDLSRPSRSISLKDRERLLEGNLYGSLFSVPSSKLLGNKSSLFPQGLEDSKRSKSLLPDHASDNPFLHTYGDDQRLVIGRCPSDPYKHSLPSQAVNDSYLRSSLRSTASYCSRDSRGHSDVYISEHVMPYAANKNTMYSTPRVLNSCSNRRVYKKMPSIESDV
# Description: NR1100 (NR1G) and NR2A clones were kindly provided by Dr. R. S. Zukin (Albert Einstein College of Medicine, New York, N.Y.) and Dr. S. Nakanishi (Faculty of Medicine, Kyoto University, Kyoto, Japan), respectively. mRNA was prepared through in vitro transcription of NR1100 and NR2A cDNAs using the mMessage mMachine kit (Ambion, Tex.). On the day following isolation, batches of 20-40 selected Xenopus oocytes were injected with 50 nl of prepared RNA solution (0.5 ng NR1100 and 5 ng of NR2A mRNA/oocyte). Oocytes were maintained in glass petri dishes containing Barth's solution (84 mM NaCl, 1 mM KCl, 2.4 mM NaHCO3, 0.82 mM MgSO4, 0.41 mM CaCl2, 0.33 mM Ca(NO3)2, 2.5 mM pyruvate, 0.1 mg/ml gentamycin, 7.5 mM Tris/HCl, pH 7.4) in an incubator at 18° C. Oocytes were used for electrophysiological experiments 4-10 days after injection.
# Recordings from oocytes were obtained using the two electrode voltage-clamp mode with an Axoclamp-2A amplifier (Axon Instruments). The resistance of microelectrodes, pulled from glass capillaries and filled with 3 M KCl solution, was 2.5-3.5 M. Membrane potential was clamped at −70 mV. Drugs were applied by a gravity-driven external perfusion system. Drug application and data acquisition were carried out with custom-written software implemented in the SuperScopeII programming language (GW Instruments, Somerville, Mass.).
# The degree of modulation of NMDA-induced Ca^2+ influx, cell death, and currents is expressed as the percent change, defined as (I′/I−1)×100%, where I and I′ are the NMDA-induced responses in the absence and presence of modulator, respectively. All data are expressed as mean±standard error of the mean. Statistical significance was evaluated using 95% confidence limits unless otherwise noted.
# [4] = tested on: primary cultures of rat hippocampal neurons; experiment: NMDA-induced increase in [Ca2+]i, Fluo-3 AM; type: cell-based
# Description: as §1
# DMSO was also added to controls to maintain a constant final DMSO concentration of […].
# as §3
# [5] = tested on: primary cultures of rat hippocampal neurons; conditions: Weaver et al. 1997; cited from earlier work
# [6] = Precipitation in assay buffer / culture medium; type: physicochemical; conditions: 0.5% DMSO, above 50 μM (3α5β) and 20 μM (pregnenolone)
# Description: Steroids were initially dissolved in 100% DMSO, then diluted into assay buffer at a final DMSO concentration of 0.5% and sonicated for 20 min. All other solutions also contained 0.5% DMSO. Except where otherwise noted, the final steroid concentration was 100 μM.
# as §2
compound,measurement,setting,value
pregnanolone hemisuccinate [3α5βHS],inhibition of NMDA-induced neuronal death,"[1]; acute 30 μM NMDA, steroid 100 μM (3α5β 50 μM)",54±3%
same,inhibition of neuronal death after middle cerebral artery occlusion,[2],effective at inhibiting the neuronal death
same,inhibition of INMDA,[3],about equally effective in inhibiting INMDA
same,reduction of NMDA-induced rise in [Ca2+]i,"[4]; 5 μM NMDA, steroid 100 μM (3α5β 50 μM)",approximately 40%
C[C@]12CC[C@@H]3c4ccc(O)cc4CC[C@H]3[C@@H]1CC[C@@H]2O [17β-estradiol],neuroprotection against NMDA-induced neuronal death,[5],neuroprotective against NMDA-induced neuronal death
CC(=O)[C@H]1CC[C@H]2[C@@H]3CC=C4C[C@@H](O)CC[C@]4(C)[C@H]3CC[C@]12C [pregnenolone],exacerbation of NMDA-induced neuronal death,"[1]; acute NMDA, steroid 100 μM (pregnenolone 20 μM)",ineffective
same,precipitation at higher concentrations,[6],higher concentrations tended to precipitate
same,potentiation of INMDA,[3],5±2%
same,potentiation of NMDA-induced Ca2+ accumulation,[4],without effect
